Like-named read-outs stand apart in the source and are kept apart here.
Columns and labels:
[1] = molecular target: T1, Wee1A kinase (CDK1 Tyr15 phosphorylation in ACHN renal cell carcinoma cells) (Homo sapiens, UniProt P30291); experiment: High-content imaging of pCdk1 Y15, Wee1A kinase target engagement in ACHN cells; assay type: cell-based
T1 construct: pCDK1 Tyr15 immunofluorescence read-out
In short: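 EC50 values come from the per-well fraction of cells with nuclear pCdk1 Y15 staining, normalised to DMSO control, by automated immunofluorescence imaging. Cells were ACHN renal carcinoma, treated 4 h with compound at 7–5,000 nM or 0.3–200 nM.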

[2] = molecular target: T2, recombinant human Wee1A kinase (Homo sapiens, UniProt P30291); experiment: Wee1A kinase binding assay (LanthaScreen Eu time-resolved FRET)
T2 construct: full length Wee1 kinase was expressed by baculovirus in insect cells; purchased Invitrogen PV3817; host or cells: insect cells (baculovirus)
In short: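 Full-length, baculovirus-expressed GST-tagged Wee1A (5 nM) was mixed with 2 nM Eu-anti-GST antibody, 30 nM kinase tracer 178 and compound (1% DMSO). Buffer was 50 mM HEPES pH 7.5, 10 mM MgCl2, 1 mM EGTA, 0.01% Brij-35, incubated 60 min at room temperature. TR-FRET 665/615 nm emission ratios from duplicates were curve-fitted.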

[3] = molecular target: T3, Myt1 kinase (CDK1 Thr14 phosphorylation in DAOY medulloblastoma cells) (Homo sapiens, UniProt Q99640); experiment: AlphaLISA assay, Myt1 kinase target engagement (phospho-CDK1 Thr14) in DAOY cells; assay type: cell-based
T3 construct: pCDK1 Thr14 AlphaLISA read-out
T3 sequence (Q99640 1-499): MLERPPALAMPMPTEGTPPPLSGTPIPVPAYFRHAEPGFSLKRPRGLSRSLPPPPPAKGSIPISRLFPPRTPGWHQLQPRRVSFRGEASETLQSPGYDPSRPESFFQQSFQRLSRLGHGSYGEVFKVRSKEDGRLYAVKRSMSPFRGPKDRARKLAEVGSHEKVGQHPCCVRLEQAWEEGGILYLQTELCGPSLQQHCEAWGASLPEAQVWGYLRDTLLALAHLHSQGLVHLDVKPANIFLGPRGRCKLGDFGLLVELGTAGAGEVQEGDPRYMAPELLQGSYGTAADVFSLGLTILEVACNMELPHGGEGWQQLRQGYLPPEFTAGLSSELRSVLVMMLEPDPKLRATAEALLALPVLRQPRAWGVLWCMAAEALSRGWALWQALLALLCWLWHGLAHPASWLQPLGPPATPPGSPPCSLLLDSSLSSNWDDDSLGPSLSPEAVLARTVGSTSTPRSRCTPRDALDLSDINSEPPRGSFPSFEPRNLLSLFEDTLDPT
Description: Each of an ACHN renal cell carcinoma cell line (ATCC) and a DAOY medulloblastoma cell line, and an A427 lung cancer line were cultured in Minimum Essential Medium Eagle supplemented with 10% fetal calf serum (Sigma), 1% Penicillin-Streptomycin and 10 mM HEPES buffer (HyClone). Cell cultures were kept in a humidified incubator at 37 °C and 5% CO2. Cells were routinely tested for Mycoplasma contamination.
For target engagement assessment of Myt1 kinase inhibition, quantification of Cdk1 phosphorylated on threonine 14 was detected using the AlphaLISA® SureFire® Ultra™ Human Phospho-CDK1 (Thr14) assay (Perkin Elmer). DAOY or ACHN cells were seeded into tissue culture treated 96-well plates (VWR) to a density of 10,000 or 20,000 cells per well respectively. 24 h post seeding cells were treated for 4 h with compounds at concentrations ranging from 7 to 5000 nM. Cells were washed with PBS and lysed in 50 μl AlphaLISA lysis buffer before freezing at −80 C. Ten ul of the lysate was transferred to 384 well plates and incubated with AlphaLISA donor and acceptor beads according to the manufacturer's instructions. Dose response curves and EC50 values were calculated and visualized using GraphPad Prism version 9. Target engagement for Myt1 kinase can also be measured using the same AlphaLISA assay in OVCAR3 cells, an ovarian cancer cell line. NIH:OVCAR-3 (OVCAR3) cells are cultured in RPMI-1640 medium supplemented with 0.01 mg/ml insulin, 20% FBS, 1% Penicillin-Streptomycin and 10 mM HEPES buffer. 14,000 cells per well are seeded into 96 well tissue culture plates in full medium. Twenty-four hours post seeding, cells are treated with compound for 4 hours at concentrations ranging from 0.017 nM to 1000 nM.

ACHN cells = experiment: Cell Titer Glo viability assay, ACHN cells; assay type: cell-based; settings: Homo sapiens, 144 h, absolute EC50
In short: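 Cells grown in MEM with 10% FCS were seeded at 500 (A427), 400 (ACHN) or 250 (DAOY) per well and treated the next day with compound at 17 to 10 000 nM. Viability relative to untreated control was read at 144 h by CellTiter-Glo 2.0.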

[4] = molecular target: T4, Myt1 kinase (recombinant PMYT-1) (Homo sapiens, UniProt Q99640); experiment: Myt1 kinase binding assay (LanthaScreen Eu Kinase Binding Assay)
T4 construct: full length PMYT-1 was expressed by baculovirus in insect cells; purchased Invitrogen A30984; host or cells: insect cells (baculovirus)
T4 sequence (Q99640 1-499): T3 sequence (Q99640 1-499)
In short: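 Compound binding to Myt1 kinase was assessed using the LanthaScreen Eu Kinase Binding Assay. This europium-based binding format was applied to quantify how strongly each compound bound to the Myt1 enzyme, and the binding affinity was reported for each compound as an IC50 value.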

[5] = 4 h treatment, nuclear positivity for pCdk1 Y15 vs DMSO control, read-out: CDK1 Tyr15 Phosphorylation EC50
[6] = 30 nM tracer 178, 5 nM Wee1A kinase, 2 nM Eu-labeled antibody, 60 minutes at room temperature, read-out: Wee1A kinase Binding IC50
[7] = 4 h treatment, read-out: CDK1 Thr14 Phosphorylation EC50
[8] = 3 nM tracer 178, 2.5 nM PMYT-1, 1 nM Eu-labeled antibody, read-out: Myt1 kinase Binding IC50

T1 sequence (P30291 whole entry): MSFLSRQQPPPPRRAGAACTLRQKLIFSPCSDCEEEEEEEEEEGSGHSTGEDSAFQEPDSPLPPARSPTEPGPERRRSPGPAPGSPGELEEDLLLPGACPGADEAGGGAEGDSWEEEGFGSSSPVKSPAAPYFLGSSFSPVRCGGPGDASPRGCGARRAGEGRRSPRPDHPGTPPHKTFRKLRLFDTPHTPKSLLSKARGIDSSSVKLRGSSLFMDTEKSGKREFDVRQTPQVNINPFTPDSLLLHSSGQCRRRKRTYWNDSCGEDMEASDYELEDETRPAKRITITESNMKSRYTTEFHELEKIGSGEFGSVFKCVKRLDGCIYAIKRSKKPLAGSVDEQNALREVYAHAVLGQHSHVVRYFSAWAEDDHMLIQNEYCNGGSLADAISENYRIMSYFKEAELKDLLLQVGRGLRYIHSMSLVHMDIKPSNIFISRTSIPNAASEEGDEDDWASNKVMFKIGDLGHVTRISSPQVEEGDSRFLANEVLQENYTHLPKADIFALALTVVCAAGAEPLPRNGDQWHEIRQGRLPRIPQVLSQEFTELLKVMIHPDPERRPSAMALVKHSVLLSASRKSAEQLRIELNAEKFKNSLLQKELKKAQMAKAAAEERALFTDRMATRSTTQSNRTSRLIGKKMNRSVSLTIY
T2 sequence (P30291 whole entry): as above

SMILES | EC50 [1, 5] [nM] | IC50 [2, 6] [nM] | EC50 [3, 7] [nM] | EC50 (ACHN cells) [nM] | IC50 [4, 8] [nM] | EC50 ([1]; read-out: CDK1 Tyr15 Phosphorylation EC50, 4 h treatment, nuclear positivity for pCdk1 Y15 vs DMSO control) [nM] | IC50 [2] [nM] | EC50 ([3]; read-out: CDK1 Thr14 Phosphorylation EC50, 4 h treatment) [nM] | IC50 ([4]; Myt1 kinase Binding IC50, 3 nM tracer 178, 2.5 nM PMYT-1, 1 nM Eu-labeled antibody) [nM]
C=CCn1c(=O)c2cnc(Nc3ccc4c(cnn4C)c3)nc2n1-c1cccc(O[C@H]2CCNC2)n1 [Compound 100, 1-{6-[(S)-3-pyrrolidinyloxy]-2-pyridyl}-2-allyl-6-(1-methyl-1H-indazol-5-ylamino)-1,2-dihydro-3H-1,2,5,7-tetraazainden-3-one] | 100 to 500 | < 10 | > 1000 | 100 to 500 | < 20 |  |  |  | 
C=CCn1c(=O)c2cnc(Nc3ccc4c(cnn4C)c3)nc2n1-c1cccc(O[C@H]2CCCNC2)n1 [Compound 104, 1-{6-[(S)-3-piperidyloxy]-2-pyridyl}-2-allyl-6-(1-methyl-1H-indazol-5-ylamino)-1,2-dihydro-3H-1,2,5,7-tetraazainden-3-one] | < 100 | < 10 | 200 to 500 | ≤ 100 | < 20 |  |  |  | 
C=CCn1c(=O)c2cnc(Nc3ccc4c(cnn4C)c3)nc2n1-c1cccc(O[C@H]2CCN(C)C2)n1 [Compound 105, 1-{6-[(S)-1-methyl-3-pyrrolidinyloxy]-2-pyridyl}-2-allyl-6-(1-methyl-1H-indazol-5-ylamino)-1,2-dihydro-3H-1,2,5,7-tetraazainden-3-one] | < 100 | < 10 | 500 to 1000 | ≤ 100 | 20 to 100 |  |  |  | 
C=CCn1c(=O)c2cnc(Nc3ccc(Cl)cc3)nc2n1-c1cccc(NC2CCN(C)CC2)n1 [Compound 138, 2-allyl-6-((4-chlorophenyl)amino)-1-(6-((1-methylpiperidin-4-yl)amino)pyridin-2-yl)-1,2-dihydro-3H-pyrazolo[3,4-d]pyrimidin-3-one] | < 100 | < 10 | > 1000 | ≤ 100 | 100 to 500 |  |  |  | 
C=CCn1c(=O)c2cnc(Nc3ccc(Cl)cc3)nc2n1-c1cccc(OC2CCNCC2)n1 [Compound 141, 2-allyl-6-((4-chlorophenyl)amino)-1-(6-(piperidin-4-yloxy)pyridin-2-yl)-1,2-dihydro-3H-pyrazolo[3,4-d]pyrimidin-3-one] | < 100 | < 10 | 200 to 500 | 100 to 500 | < 20 |  |  |  | 
C=CCn1c(=O)c2cnc(Nc3ccc(Cl)cc3)nc2n1-c1cccc(O[C@H]2CCNC2)n1 [Compound 145, 1-{6-[(S)-3-pyrrolidinyloxy]-2-pyridyl}-2-allyl-6-(p-chlorophenylamino)-1,2-dihydro-3H-1,2,5,7-tetraazainden-3-one] | 100 to 500 | < 10 | 200 to 500 | 100 to 500 | 20 to 100 |  |  |  | 
C=CCn1c(=O)c2cnc(Nc3cnn(C)c3)nc2n1-c1cccc(O[C@H]2C[C@H]3CC[C@@H](C2)N3C)n1 [Compound 190, 6-[(1-methyl-1H-pyrazol-4-yl)amino]-1-(6-{[(trans)-8-methyl-8-azabicyclo[3.2.1]octan-3-yl]oxy}pyridin-2-yl)-2-(prop-2-en-1-yl)-1H,2H,3H-pyrazolo[3,4-d]pyrimidin-3-one] |  |  |  | 100 to 500 |  | 100 to 500 | < 10 | 500 to 1000 | < 20
C=CCn1c(=O)c2cnc(Nc3ccc4c(c3)OCO4)nc2n1-c1cccc(NC2CCN(C)CC2)n1 [Compound 196, 2-allyl-6-(2H-1,3-benzodioxol-5-ylamino)-1-[6-(1-methyl-4-piperidylamino)-2-pyridyl]-1,2-dihydro-3H-1,2,5,7-tetraazainden-3-one] | < 100 | < 10 | > 1000 | ≤ 100 | 100 to 500 |  |  |  | 
C=CCn1c(=O)c2cnc(Nc3cnn(C(C)C)c3)nc2n1-c1cccc(OC2CCN(C)CC2)n1 [Compound 198, 2-allyl-6-(1-isopropyl-4-pyrazolylamino)-1-[6-(1-methyl-4-piperidyloxy)-2-pyridyl]-1,2-dihydro-3H-1,2,5,7-tetraazainden-3-one] | < 100 | < 10 | > 1000 | ≤ 100 | 100 to 500 |  |  |  | 
C=CCn1c(=O)c2cnc(Nc3cnn(CC(C)C)c3)nc2n1-c1cccc(OC2CCN(C)CC2)n1 [Compound 200, 2-allyl-6-(1-isobutyl-4-pyrazolylamino)-1-[6-(1-methyl-4-piperidyloxy)-2-pyridyl]-1,2-dihydro-3H-1,2,5,7-tetraazainden-3-one] | < 100 | < 10 | > 1000 | ≤ 100 | 100 to 500 |  |  |  | 
C=CCn1c(=O)c2cnc(Nc3ccc(C#N)c(C)c3)nc2n1-c1cccc(OC2CCN(C)CC2)n1 [Compound 204, 2-methyl-4-[(1-{6-[(1-methylpiperidin-4-yl)oxy]pyridin-2-yl}-3-oxo-2-(prop-2-en-1-yl)-1H,2H,3H-pyrazolo[3,4-d]pyrimidin-6-yl)amino]benzonitrile] | < 100 | < 10 | > 1000 | ≤ 100 | 20 to 100 |  |  |  | 
C=CCn1c(=O)c2cnc(Nc3ccc4nsnc4c3)nc2n1-c1cccc(OC2CCN(C)CC2)n1 [Compound 208, 2-allyl-6-(2,1,3-benzothiadiazol-5-ylamino)-1-[6-(1-methyl-4-piperidyloxy)-2-pyridyl]-1,2-dihydro-3H-1,2,5,7-tetraazainden-3-one] | < 100 | < 10 | 200 to 500 | ≤ 100 | < 20 |  |  |  | 
C=CCn1c(=O)c2cnc(Nc3cccnc3)nc2n1-c1cccc(OC2CCN(C)CC2)n1 [Compound 229, 2-allyl-1-[6-(1-methyl-4-piperidyloxy)-2-pyridyl]-6-(3-pyridylamino)-1,2-dihydro-3H-1,2,5,7-tetraazainden-3-one] | 100 to 500 | < 10 | > 1000 | ≤ 100 | 20 to 100 |  |  |  | 
C=CCn1c(=O)c2cnc(Nc3ccc4[nH]ncc4c3)nc2n1-c1cccc(OC2CCN(C)CC2)n1 [Compound 238, 6-((1H-indazol-5-yl)amino)-2-allyl-1-(6-((1-methylpiperidin-4-yl)oxy)pyridin-2-yl)-1,2-dihydro-3H-pyrazolo[3,4-d]pyrimidin-3-one] | < 100 | < 10 | 200 to 500 | ≤ 100 | 20 to 100 |  |  |  | 

Reference: patent US20260364080A1, “PYRAZOLO-PYRIMIDINONE COMPOUNDS FOR USE IN METHODS OF INHIBITING WEE1 A KINASE” (Acrivon Therapeutics, Inc., priority 2023, published 2026)
